# In US20020039601A1, “Cancer cell growth suppressor and cell differentiation inducer and method for manufacturing the same” (priority 2000, published 2002):
# Key:
# [1] = tested on: HL-60 cells; test: Human leukemia differentiation inducing test (NBT reducing ability); format: cell-based; details: HL60 cells
# Experimental: The differentiation inducing test using HL-60 cells, which are leukemia cells, was performed according to “New Cultured Cell Experiment Method” (written by Toshio Kuroki, on pages 286-289, published by Yodosha), “Jpn. J-Cancer” (Res. 81, 807-812, August 1990), and “Clinical Test Method” written by Izumi Kamei, page 358, published by Kinbara Shuppan) to examine the differentiation inducing ability with the NBT reducing ability as an index.
# It is known that for HL60 cells, differentiation is induced by retinoic acid, DMSO or active type vitamin D3. Active type vitamin D3 (medicine for external use, treatment of psoriasis) and all-trans retinoic acid (ATRA) are used as oral medicine for treating leukemia. When leukemia cells differentiate, azurophile granules in the cells reduce. If they differentiate into granulocyte, cell nucleus segment. […] As a convenient marker for differentiation induction of leukemia cells, one method is to measure nitro blune tetrazolium (NBT) reducing ability.
# The NBT test uses the fact that when promyelocytic leukemia cells such as HL60 differentiate into monocyte/macrophage, production of active oxygen increases. That is to say, formation of insoluble formozan produced when NBT is reduced due to oxidation/reduction reaction by the active oxygen is used as a marker of differentiation. Active vitamin D3 has a differentiating ability at 10^−9 to 10^−6 M, ATRA at 10^−8 to 10^−6 M, and DMSO at 1.2 to 1.3%. At the respective maximum concentrations, they can differentiate by about 90% or over. Judging by the NBT reducing ability, the results were examined.
# [2] = tested on: HL-60 cells; details: HL60 cells, cited from earlier work
# [3] = tested on: carcinoma strain of the colon (Colo201 cells); test: CD-DST cancer cell growth suppression test, Colo201; format: cell-based, human; details: 67.6 μg of capsanthin (FIG. 6)
# From the text: Employing a drug sensitivity test method (CD-DST method), Toma-pi water-soluble component condensed liquid of different concentrations was examined for growth suppressing effect at the contact time set at seven days.
# The CD-DST method herein referred to is a well-known experiment method called a collagen gel drop method, and its steps are shown in FIG. 1. Its details are also described in “Establishment of Collagen Gel Droplet Embedded Culture Drug Sensitivity Test (CD-DST) and consideration about its clinical utility” in “Cancer and Chemical Treatment” (published in 1995, vol.22, 1933-1939 pages).
# As a method of cultivating cancer cells, a human cancer cell first generation cultivation system kit (Plymaster made by Nitta Gelatine Co.), was used and cells were cultivated according to a normal method (reference document J. Jpn. Soc. Cancer Ther. 29(7):946-956, 1994).
# The growth suppressing effect was judged in terms of suppressing percentage (T/C%) which is the ratio of a treated group to an untreated group (control group). Units μg and mg shown in FIGS. 2-7 show the concentrations of Toma-pi water-soluble components in terms of the weight of Toma-pi powder (dried powder of Capsicum Annuum L.Var.grossumn) used as raw material for water extracting. It is hereinbelow referred to as “converted concentration of Toma-pi water-soluble components”.
compound,measurement,setting,value
active type vitamin D3,NBT reducing rate,[1]; 10^−9 M,about 5%
same,differentiating ability,"[2]; 10^−10 M, alone",does not ordinarily show any differentiating ability
same,concentration having differentiating ability,[2],10^−9 to 10^−6 M
"CC1=C(/C=C/C(C)=C/C=C/C(C)=C/C(=O)O)C(C)(C)CCC1 [ATRA, all-trans retinoic acid]",concentration having differentiating ability,[2],10^−8 to 10^−6 M
CC1=C(/C=C/C(C)=C/C=C/C(C)=C/C=C/C=C(C)/C=C/C=C(C)/C=C/C(=O)[C@]2(C)C[C@@H](O)CC2(C)C)C(C)(C)C[C@H](O)C1 [capsanthin],growth suppression,[3],24%
same,active type vitamin D3 concentration from which differentiation was promoted in combination,[1]; capsanthin 200 μg with active type vitamin D3 (FIG. 9),≥ 75 pM
same,active type vitamin D3 concentration at which differentiation was promoted in combination,[1]; capsanthin 400 μg with active type vitamin D3 (FIG. 9),10^−11 M
C[S+](C)[O-] [DMSO],concentration having differentiating ability,[2],1.2 to 1.3%
